Source: patent publication US11865126B2, “Method for treating anxiety disorders, headache disorders, and eating disorders with psilocybin” (priority 2019, dated 2024)

System: healthy subjects
Test: Life Changes Inventory (LCI)
Format: in vivo, human
From the text: In some embodiments, the Life Changes Inventory (LCI) questionnaire is utilized to evaluate the safety and/or efficacy of psilocybin. The LCI is designed as a questionnaire to investigate those variables present in the day-to-day experience of adults that might relate either to stability or decline of intellectual ability.
The following list of outcome measures are non-exhaustive. • a. The short-term change from Baseline (Day −1 [Visit 2]) to Day 7 (Visit 5) in cognitive measures of attention, spatial and working memory and executive function was measured by a composite score of the CANTAB Panel (Spatial Working Memory [SWM], Rapid Visual Information Processing [RVP], Paired Associates Learning [PAL]). • b. The short-term change from Baseline (Day −1 [Visit 2]) to Day 7 (Visit 5) in Social Cognition Panel scales (Pictorial Empathy Test [PET], Reading the Mind in the Eyes Test [RMET], Toronto Empathy Questionnaire [TEQ], Social Value Orientation [SVO], Scale of Social Responsibility [SSR]). • c. The change from Baseline (Day −1 [Visit 2]) to Day 28 (Visit 6) in cognitive measures of attention, spatial and working memory and executive function as measured by a composite score of the CANTAB Panel (SWM, RVP, PAL). • d. The long-term change from Baseline (Day −1 [Visit 2]) to Day 84 (Visit 7) in Social Cognition Panel scales (PET, RMET, TEQ, SVO, SSR). • e. Dose-related differences between cognitive effects of psilocybin at Baseline (Day −1 [Visit 2]), Day 7 (Visit 5) and Day 28 (Visit 6), as measured by a composite score of the CANTAB Panel (SWM, RVP, PAL). • f. Dose-related differences between psychological effects of psilocybin at Baseline (Day −1 [Visit 2]), Day 7 (Visit 5) and Day 84 (Visit 7), as measured by Social Cognition Panel scales (PET, RMET, TEQ, SVO, SSR). • g. Differences in cognitive effects of psilocybin between psilocybin-naïve and experienced subjects at Baseline (Day −1 [Visit 2]), Day 7 (Visit 5) and Day 28 (Visit 6), as measured by a composite score of the CANTAB Panel (SWM, RVP, PAL). • h. Differences in Positive and Negative Affect Schedule (PANAS) after study drug administration on Day 0 (Visit 3). • i. Differences between psilocybin and placebo in the Emotion Recognition Test (ERT), Intra-Extra Dimensional Set Shift (IED), One Touch Stockings (OTS), Verbal Fluency and Digit Span Forward at Day 7 (Visit 5). • j. A composite score of the CANTAB Panel, including the following tests: • i. Spatial Working Memory (SWM) (performed at Visit 2, Visit 5, and Visit 6). • ii. Rapid Visual Information Processing (RVP) (performed at Visit 2, Visit 5, and Visit 6). • iii. Paired Associates Learning (PAL) (performed at Visit 2, Visit 5, and Visit 6). • k. Cognitive Flexibility Panel • i. Emotion Recognition Task (ERT) (performed at Visit 5). • ii. Intra-Extra Dimensional Set Shift (IED) (performed at Visit 5). • iii. One Touch Stockings (OTS) (performed at Visit 5). • iv. Verbal Fluency (performed at Visit 5). • v. Digit Span Forward (performed at Visit 5). • l. Five Dimension Altered States of Consciousness questionnaire (5D-ASC) (performed at Visit 3). • m. PANAS (performed at Visit 2 and Visit 3). • n. NEO-Five Factor Inventory (NEO-FFI) (performed at Visit 2, Visit 5, and Visit 7). • o. Symptom Checklist-90 item (SCL-90) (performed at Visit 2, Visit 5, and Visit 7). • p. Life Changes Inventory (LCI): The LCI measures changes in attitudes and values after near-death experiences often used to evaluate personal transformation following spiritually oriented experiences and practices. (performed at Visit 5 and Visit 7). • q. Social Cognition Panel scales • i. Pictorial Empathy Test (PET) (performed at Visit 2, Visit 5, and Visit 7). • ii. Reading the Mind in the Eyes Test (RMET) (performed at Visit 2, Visit 5, and Visit 7). • iii. Social Value Orientation (SVO) (performed at Visit 2, Visit 5, and Visit 7). • iv. Toronto Empathy Questionnaire (TEQ) (performed at Visit 2, Visit 5, and Visit 7). • v. […]

For `CN(C)CCc1c[nH]c2cccc(OP(=O)(O)O)c12` [psilocybin], the “LCI Self-Acceptance Scores (LS mean)” value (10 mg psilocybin, Day 7 (Example 19)) was 0.8, the “LCI Self-Acceptance Scores (LS mean)” value (10 mg psilocybin, Day 84 (Example 19)) was 0.6 and the “LCI Self-Acceptance Scores (LS mean)” value (25 mg psilocybin, Day 7 (Example 19)) was 0.6. For the same compound, the “LCI Self-Acceptance Scores (LS mean)” value (25 mg psilocybin, Day 84 (Example 19)) was 0.6, the “LCI - absolute change, difference Psilocybin 10 mg - Placebo” value (Day 7) was 0.4 and the “LCI - absolute change, difference Psilocybin 25 mg - Placebo” value (Day 7) was 0.3. For the same compound, the “LCI - absolute change, difference Psilocybin (25 mg-10 mg)” value (Day 7) was −0.1, the “LCI appreciation for life, difference Psilocybin 10 mg - Placebo” value (Day 7) was 0.6 and the “LCI appreciation for life, difference Psilocybin 25 mg - Placebo” value (Day 7) was 0.5. For the same compound, the “LCI appreciation for life, difference Psilocybin (25 mg-10 mg)” value (Day 7) was −0.2, the “LCI appreciation of death, difference Psilocybin 10 mg - Placebo” value (Day 7) was 0.1 and the “LCI appreciation of death, difference Psilocybin 25 mg - Placebo” value (Day 7) was 0.1. The “LCI appreciation of death, difference Psilocybin (25 mg-10 mg)” value (Day 7) was −0.0, the “LCI concern for others, difference Psilocybin 10 mg - Placebo” value (Day 7) was 0.4 and the “LCI concern for others, difference Psilocybin 25 mg - Placebo” value (Day 7) was 0.4. For the same compound, the “LCI concern for others, difference Psilocybin (25 mg-10 mg)” value (Day 7) was 0.0, the “LCI concern for worldly achievement, difference Psilocybin 10 mg - Placebo” value (Day 7) was −0.2 and the “LCI concern for worldly achievement, difference Psilocybin 25 mg - Placebo” value (Day 7) was −0.1. The “LCI concern for worldly achievement, difference Psilocybin (25 mg-10 mg)” value (Day 7) was 0.1, the “LCI concern social, difference Psilocybin 10 mg - Placebo” value (Day 7) was 0.1 and the “LCI concern social, difference Psilocybin 25 mg - Placebo” value (Day 7) was 0.2. For the same compound, the “LCI concern social, difference Psilocybin (25 mg-10 mg)” value (Day 7) was 0.1, the “LCI quest for meaning, difference Psilocybin 10 mg - Placebo” value (Day 7) was 0.4 and the “LCI quest for meaning, difference Psilocybin 25 mg - Placebo” value (Day 7) was 0.4. For the same compound, the “LCI quest for meaning, difference Psilocybin (25 mg-10 mg)” value (Day 7) was 0.0, the “LCI religiousness, difference Psilocybin 10 mg - Placebo” value (Day 7) was −0.1 and the “LCI religiousness, difference Psilocybin 25 mg - Placebo” value (Day 7) was 0.0. The “LCI religiousness, difference Psilocybin (25 mg-10 mg)” value (Day 7) was 0.1, the “LCI self-acceptance, difference Psilocybin 10 mg - Placebo” value (Day 7) was 0.7 and the “LCI self-acceptance, difference Psilocybin 25 mg - Placebo” value (Day 7) was 0.5. The “LCI self-acceptance, difference Psilocybin (25 mg-10 mg)” value (Day 7) was −0.1, the “LCI spirituality, difference Psilocybin 10 mg - Placebo” value (Day 7) was 0.3 and the “LCI spirituality, difference Psilocybin 25 mg - Placebo” value (Day 7) was 0.2. For the same compound, the “LCI spirituality, difference Psilocybin (25 mg-10 mg)” value (Day 7) was −0.1, the “LCI - absolute change, difference Psilocybin 10 mg - Placebo” value (Day 84) was 0.4 and the “LCI - absolute change, difference Psilocybin 25 mg - Placebo” value (Day 84) was 0.4. For the same compound, the “LCI - absolute change, difference Psilocybin (25 mg-10 mg)” value (Day 84) was −0.0, the “LCI appreciation for life, difference Psilocybin 10 mg - Placebo” value (Day 84) was 0.6 and the “LCI appreciation for life, difference Psilocybin 25 mg - Placebo” value (Day 84) was 0.5. The “LCI appreciation for life, difference Psilocybin (25 mg-10 mg)” value (Day 84) was −0.1, the “LCI appreciation of death, difference Psilocybin 10 mg - Placebo” value (Day 84) was 0.2 and the “LCI appreciation of death, difference Psilocybin 25 mg - Placebo” value (Day 84) was 0.2. The “LCI appreciation of death, difference Psilocybin (25 mg-10 mg)” value (Day 84) was 0.0, the “LCI concern for others, difference Psilocybin 10 mg - Placebo” value (Day 84) was 0.4 and the “LCI concern for others, difference Psilocybin 25 mg - Placebo” value (Day 84) was 0.5. For the same compound, the “LCI concern for others, difference Psilocybin (25 mg-10 mg)” value (Day 84) was 0.1, the “LCI concern for worldly achievement, difference Psilocybin 10 mg - Placebo” value (Day 84) was −0.2 and the “LCI concern for worldly achievement, difference Psilocybin 25 mg - Placebo” value (Day 84) was −0.1. For the same compound, the “LCI concern for worldly achievement, difference Psilocybin (25 mg-10 mg)” value (Day 84) was 0.1, the “LCI concern social, difference Psilocybin 10 mg - Placebo” value (Day 84) was 0.1 and the “LCI concern social, difference Psilocybin 25 mg - Placebo” value (Day 84) was 0.1. The “LCI concern social, difference Psilocybin (25 mg-10 mg)” value (Day 84) was 0.0, the “LCI quest for meaning, difference Psilocybin 10 mg - Placebo” value (Day 84) was 0.4 and the “LCI quest for meaning, difference Psilocybin 25 mg - Placebo” value (Day 84) was 0.4. For the same compound, the “LCI quest for meaning, difference Psilocybin (25 mg-10 mg)” value (Day 84) was −0.0, the “LCI religiousness, difference Psilocybin 10 mg - Placebo” value (Day 84) was −0.0 and the “LCI religiousness, difference Psilocybin 25 mg - Placebo” value (Day 84) was 0.0. The “LCI religiousness, difference Psilocybin (25 mg-10 mg)” value (Day 84) was 0.1, the “LCI self-acceptance, difference Psilocybin 10 mg - Placebo” value (Day 84) was 0.5 and the “LCI self-acceptance, difference Psilocybin 25 mg - Placebo” value (Day 84) was 0.5. The “LCI self-acceptance, difference Psilocybin (25 mg-10 mg)” value (Day 84) was 0.0, the “LCI spirituality, difference Psilocybin 10 mg - Placebo” value (Day 84) was 0.4 and the “LCI spirituality, difference Psilocybin 25 mg - Placebo” value (Day 84) was 0.4. The “LCI spirituality, difference Psilocybin (25 mg-10 mg)” value (Day 84) was −0.0.
